Reference: patent publication US7405228B2, “Antibacterial cyano-(substituted)-methylenepiperidinophenyl oxazolidinones targeting multiple ribonucleoprotein sites” (Wockhardt Limited, priority 2002, dated 2008)

Row | Structure (SMILES) | melting point
1 | N#CC=C1CCN(c2ccc(N3CC(CN=[N+]=[N-])OC3=O)cc2)CC1 (stereo in doubt) [Example 1, (S)-{3-[4-(4-cyanomethylidene-piperidin-1-yl)-phenyl]-2-oxo-oxazolidin-5-ylmethyl}-azide] | 80 to 82 °C
2 | N#CC=C1CCN(c2ccc(N3CC(Cn4cc(C#N)nn4)OC3=O)cc2)CC1 (stereo in doubt) [Example 5, (S)-1-{3-[4-(4-cyanomethylidene-piperidin-1-yl)-phenyl]-2-oxo-oxazolidin-5-ylmethyl}-4-cyano-1,2,3-triazole] | 186 to 188 °C
3 | CCOC(=O)c1cn(CC2CN(c3ccc(N4CCC(=CC#N)CC4)c(F)c3)C(=O)O2)nn1 (stereo in doubt) [Example 26, (S)-1-{3-[4-(4-cyanomethylidene-piperidin-1-yl)-3-fluorophenyl]-2-oxo-oxazolidin-5-ylmethyl}-4-carboethoxy-1,2,3-triazole] | 164 to 166 °C
4 | N#CC=C1CCN(c2ccc(N3CC(Cn4cc(C#N)nn4)OC3=O)cc2F)CC1 (stereo in doubt) [Example 28, (S)-1-{3-[4-(4-cyanomethylidene-piperidin-1-yl)-3-fluorophenyl]-2-oxo-oxazolidin-5-ylmethyl}-4-cyano-1,2,3-triazole] | 78 to 80 °C
5 | N#CCC1CCN(c2ccc(N3CC(CN=[N+]=[N-])OC3=O)cc2)CC1 (stereo in doubt) [Example 122, (S)-{3-[4-(4-cyanomethyl-piperidin-1-yl)-phenyl]-2-oxo-oxazolidin-5-ylmethyl}-azide] | 85 to 86 °C
6 | CCOC(=O)c1cn(CC2CN(c3ccc(N4CCC(CC#N)CC4)cc3)C(=O)O2)nn1 (stereo in doubt) [Example 123, (S)-1-{3-[4-(4-cyanomethyl-piperidin-1-yl)-phenyl]-2-oxo-oxazolidin-5-ylmethyl}-4-carboethoxy-1,2,3-triazole] | 198 to 200 °C
7 | N#CCC1CCN(c2ccc(N3CC(Cn4cc(C(N)=O)nn4)OC3=O)cc2F)CC1 (stereo in doubt) [Example 127, (S)-1-{3-[4-(4-cyanomethyl-piperidin-1-yl)-3-fluorophenyl]-2-oxo-oxazolidin-5-ylmethyl}-4-carboxamido-1,2,3-triazole] | 248 to 250 °C
8 | N#CCC1CCN(c2ccc(N3CC(Cn4cc(C#N)nn4)OC3=O)cc2F)CC1 (stereo in doubt) [Example 128, (S)-1-{3-[4-(4-cyanomethyl-piperidin-1-yl)-3-fluorophenyl]-2-oxo-oxazolidin-5-ylmethyl}-4-cyano-1,2,3-triazole] | 200 to 202 °C
9 | CS(=O)(=O)OC[C@H]1CN(c2ccc(N3CCC(=CC#N)CC3)cc2)C(=O)O1 [Example 6, (R)-{3-[4-(4-cyanomethylidene-piperidin-1-yl)-phenyl]-2-oxo-oxazolidin-5-ylmethyl}-methanesulphonate] | 120 to 122 °C

More lines, now with the values ahead:

Row | melting point | Structure (SMILES)
10 | 172 to 174 °C | N#CC=C1CCN(c2ccc(N3C[C@H](CN=C=O)OC3=O)cc2F)CC1 (stereo in doubt)
11 | 112 to 114 °C | N#CC=C1CCN(c2ccc(N3CC(CN=[N+]=[N-])OC3=O)cc2F)CC1 (stereo in doubt) [Example 16, (S)-{3-[4-(4-cyanomethylidene-piperidin-1-yl)-3-fluorophenyl]-2-oxo-oxazolidin-5-ylmethyl}-azide]
12 | 145 °C | N#CC=C1CCN(c2ccc(N3C[C@H](CNC(=O)C4COC(=O)N4)OC3=O)cc2F)CC1 (stereo in doubt) [Example 24, (S)-N-{3-[4-(4-cyanomethylidene-piperidin-1-yl)-3-fluorophenyl]-2-oxo-oxazolidin-5-ylmethyl}-2-oxo-oxazolidin-4-yl-carboxamide]
13 | 155 °C | N#CC=C1CCN(c2ccc(N3C[C@H](CNC(=O)C4CCCN4)OC3=O)cc2F)CC1 (stereo in doubt) [Example 25, (S)-N-{3-[4-(4-cyanomethylidene-piperidin-1-yl)-3-fluorophenyl]-2-oxo-oxazolidin-5-ylmethyl}-pyrrolidin-2-carboxamide]
14 | 70 to 72 °C | CCOC(=O)c1cnnn1CC1CN(c2ccc(N3CCC(=CC#N)CC3)c(F)c2)C(=O)O1 (stereo in doubt) [Example 27, (S)-1-{3-[4-(4-cyanomethylidene-piperidin-1-yl)-3-fluorophenyl]-2-oxo-oxazolidin-5-ylmethyl}-5-carboethoxy-1,2,3-triazole]
15 | 183 to 184 °C | N#CC=C1CCN(c2ccc(N3C[C@H](CNC=O)OC3=O)cc2F)CC1 [Example 8, (S)-N-{3-[4-(4-cyanomethylidene-piperidin-1-yl)-3-fluorophenyl]-2-oxo-oxazolidin-5-ylmethyl}-formamide]
16 | 210 to 212 °C | CC(C)(C)CC(=O)NC[C@H]1CN(c2ccc(N3CCC(=CC#N)CC3)c(F)c2)C(=O)O1 [Example 12, (S)-N-{3-[4-(4-cyanomethylidene-piperidin-1-yl)-3-fluorophenyl]-2-oxo-oxazolidin-5-ylmethyl}-3,3-dimethylbutanamide]
17 | 68 to 70 °C | N#CC=C1CCN(c2ccc(N3C[C@H](CNC(=O)CO)OC3=O)cc2F)CC1 [Example 13, (S)-N-{3-[4-(4-cyanomethylidene-piperidin-1-yl)-3-fluorophenyl]-2-oxo-oxazolidin-5-ylmethyl}-2-hydroxyacetamide]
18 | 91 to 93 °C | CC(C)(C)C(=O)OCC(=O)NC[C@H]1CN(c2ccc(N3CCC(=CC#N)CC3)c(F)c2)C(=O)O1 [Example 14, (S)-N-{3-[4-(4-cyanomethylidene-piperidin-1-yl)-3-fluorophenyl]-2-oxo-oxazolidin-5-ylmethyl}-2-pivolyloxyacetamide]
19 | 111 to 113 °C | C=CCN(C#N)C[C@H]1CN(c2ccc(N3CCC(=CC#N)CC3)c(F)c2)C(=O)O1 [Example 22, (S)-{N-{3-[4-(4-cyanomethylidene-piperidin-1-yl)-3-fluorophenyl]-2-oxo-oxazolidin-5-ylmethylamino}N-cyano}-prop-2-ene]
20 | 150 to 152 °C | N#CC=C1CCN(c2ccc(N3C[C@H](CNC(=O)CC#N)OC3=O)cc2F)CC1 [Example 23, (S)-N-{3-[4-(4-cyanomethylidene-piperidin-1-yl)-3-fluorophenyl]-2-oxo-oxazolidin-5-ylmethyl}-2-cyanoacetamide]
21 | 162 to 164 °C | N#CC=C1CCN(c2ccc(N3C[C@H](CNC(=O)C(F)F)OC3=O)cc2F)CC1 [Example 29, (S)-N-{3-[4-(4-cyanomethylidene-piperidin-1-yl)-3-fluorophenyl]-2-oxo-oxazolidin-5-ylmethyl}-difluoroacetamide]
22 | 142 to 144 °C | N#CC=C1CCN(c2ccc(N3C[C@H](CNC(=O)C(Cl)(Cl)Cl)OC3=O)cc2F)CC1 [Example 33, (S)-N-{3-[4-(4-cyanomethylidene-piperidin-1-yl)-3-fluorophenyl]-2-oxo-oxazolidin-5-ylmethyl}-trichloroacetamide]
23 | 160 to 162 °C | N#CC=C1CCN(c2ccc(N3C[C@H](CNC(=O)CBr)OC3=O)cc2F)CC1 [Example 34, (S)-N-{3-[4-(4-cyanomethylidene-piperidin-1-yl)-3-fluorophenyl]-2-oxo-oxazolidin-5-ylmethyl}-bromoacetamide]
